Results published in PMC11879280, “Antimicrobial activity of peptoids against Metallo-β-lactamase-producing Klebsiella pneumoniae, Acinetobacter baumannii, Pseudomonas aeruginosa, and other WHO priority pathogens, including Candida auris” (Journal of Applied Microbiology, 2025).
Like-named read-outs stand apart in the source and are kept apart here. Square brackets hold non-standard residues; d marks the D form. Peptide text beside a SMILES is read from it. Nspe(4-Br) = C[C@H](NCC(=O)O)c1ccc(Br)cc1; Nspe = C[C@H](NCC(=O)O)c1ccccc1; Nlys = NCCCCNCC(=O)O

Legend:
Enterobacteriaceae = test: Geometric mean MIC, therapeutic index and selectivity ratio, Enterobacteriaceae; format: cell-based; conditions: Enterobacteriaceae (E. coli, K. pneumoniae, and E. aerogenes)
Protocol: (§1) Briefly, bacteria were suspended in cation-adjusted Mueller–Hinton broth (CAMHB; Oxoid, UK) for antibiotics, or MHB (Oxoid, UK) for peptidomimetics to obtain 5 × 10^5 colony forming unit (CFU) ml^−1. […] Positive controls contained only microbes, and blanks contained only media. Microbial suspensions (100 µl) were added to wells, plates wrapped, and incubated at 37°C, 120 rpm for 16–20 h. After incubation, suspensions were removed, log10 diluted, and plated on Trypticase Soya Agar with phosphatidylcholine and Tween 80 to determine minimum bactericidal or fungicidal concentration (MBC or MFC). […] Geometric mean MIC of the peptoids were calculated to evaluate the broad overview of antimicrobial activity across the pathogens.
(§2) The therapeutic indices (TIs) of the compounds were calculated with the use of following formula: […]

[1] = test system: ESKAPEE pathogens (all bacteria); test: Geometric mean MIC, therapeutic index and selectivity ratio, all bacteria; format: cell-based; conditions: across the 23 ESKAPEE strains
Protocol: as §1, §2

C. auris CBS12373 = test: Broth microdilution MIC; format: cell-based, Candida auris
C. auris strains = conditions: two C. auris strains
Protocol: as §1, §2

A. baumannii 007 = test system: A. baumannii 007
Summary of the method: (§3)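 Each strain, at 5 × 10^5 CFU ml^−1, is exposed to compound in Mueller–Hinton-based broth (cation-adjusted for antibiotics) and incubated 16–20 h, 37°C, 120 rpm. Bactericidal concentrations come from plating log10 dilutions of the wells on supplemented agar.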

S. aureus 117 = test system: S. aureus 117
Summary of the method: as §3

P. aeruginosa AR-1270 = test system: P. aeruginosa AR-1270
Summary of the method: as §3

[2] = test system: Enteroc. faecalis NCTC 13 379
Summary of the method: as §3

A. baumannii 008 = conditions: 008
Summary of the method: as §3

E. coli 0011 = test system: E. coli 0011
Summary of the method: as §3

K. pneumoniae JIE2713 = test system: K. pneumoniae JIE2713
Summary of the method: as §3

K. pneumoniae JIE4212 = test system: K. pneumoniae JIE4212
Summary of the method: as §3

A. baumannii ATCC 19 606 = test system: A. baumannii ATCC 19 606
Summary of the method: as §3

E. coli 0015 = test system: E. coli 0015
Summary of the method: as §3

En. cloacae 003 = test system: En. cloacae 003
Summary of the method: as §3

K. pneumoniae JIE2709 = test system: K. pneumoniae JIE2709
Summary of the method: as §3

E. coli 005 = test system: E. coli 005
Summary of the method: as §3

S. aureus 38 = test system: S. aureus 38
Summary of the method: as §3

S. aureus 04 = conditions: 04
Summary of the method: as §3

En. cloacae 001 = test system: En. cloacae 001
Summary of the method: as §3

S. aureus 105 = test system: S. aureus 105
Summary of the method: as §3

En. cloacae 005 = test system: En. cloacae 005
Summary of the method: as §3

A. baumannii 006 = test system: A. baumannii 006
Summary of the method: as §3

## C[C@@H](c1ccc(Br)cc1)N(CC(N)=O)C(=O)CN(C(=O)CN(CCCCN)C(=O)CN(C(=O)CN(C(=O)CNCCCCN)[C@@H](C)c1ccccc1)[C@@H](C)c1ccc(Br)cc1)[C@@H](C)c1ccccc1 [TM2] (H-[Nlys][Nspe][Nspe(4-Br)][Nlys][Nspe][Nspe(4-Br)]-NH2)
Enterobacteriaceae
  Geometric mean MICE: 58.3 µg/mL
[1]
  Geometric mean MIC, all bacteria: 26.1 µg/mL
[1]; value in brackets
  Geometric mean MIC, all bacteria: 24.2 µM
C. auris CBS10913; CBS 10 913, RPMI 1640 with MOPS, 5 × 10^3 CFU ml^−1, ≥90% reduction (≥50% for fluconazole)
  MIC against C. auris: 31.25 µg/mL
C. auris CBS10913; CBS10913
  MIC against C. auris: 29 µM
C. auris CBS12373; CBS 12 373, RPMI 1640 with MOPS, 5 × 10^3 CFU ml^−1, ≥90% reduction (≥50% for fluconazole)
  MIC against C. auris: 3.9 µg/mL
C. auris CBS12373; CBS12373
  MIC against C. auris: 3.6 µM
C. auris strains
  Geometric mean MICCA: 11.1 µg/mL
A. baumannii 007; 007
  MIC of peptidomimetics: 29.0 µM
A. baumannii 007; A. baumannii 007, MHB (melimine/Mel4 with 0.2% BSA, 0.01% acetic acid), mean MIC
  MIC of peptidomimetics: 31.3 µg/mL
S. aureus 117; 117
  MIC of peptidomimetics: 7.2 µM
S. aureus 117; S. aureus 117, MHB (melimine/Mel4 with 0.2% BSA, 0.01% acetic acid), mean MIC
  MIC of peptidomimetics: 7.8 µg/mL
P. aeruginosa AR-1270; AR-1270
  MIC of peptidomimetics: 29.0 µM
P. aeruginosa AR-1270; P. aeruginosa AR-1270, MHB (melimine/Mel4 with 0.2% BSA, 0.01% acetic acid), mean MIC
  MIC of peptidomimetics: 31.3 µg/mL
[2]; Enteroc. faecalis NCTC 13 379, MHB (melimine/Mel4 with 0.2% BSA, 0.01% acetic acid), mean MIC
  MIC of peptidomimetics: 31.3 µg/mL
[2]; NCTC 13
  MIC of peptidomimetics: 29.0 µM
A. baumannii 008
  MIC of peptidomimetics: 15.6 µg/mL
E. coli 0011; 0011
  MIC of peptidomimetics: 58.1 µM
E. coli 0011; E. coli 0011, MHB (melimine/Mel4 with 0.2% BSA, 0.01% acetic acid), mean MIC
  MIC of peptidomimetics: 62.5 µg/mL
K. pneumoniae JIE2713; JIE2713
  MIC of peptidomimetics: 116.2 µM
K. pneumoniae JIE2713; K. pneumoniae JIE2713, MHB (melimine/Mel4 with 0.2% BSA, 0.01% acetic acid), mean MIC
  MIC of peptidomimetics: 125 µg/mL
K. pneumoniae JIE4212; JIE4212
  MIC of peptidomimetics: 58.1 µM
K. pneumoniae JIE4212; K. pneumoniae JIE4212, MHB (melimine/Mel4 with 0.2% BSA, 0.01% acetic acid), mean MIC
  MIC of peptidomimetics: 62.5 µg/mL
A. baumannii ATCC 19 606; A. baumannii ATCC 19 606, MHB (melimine/Mel4 with 0.2% BSA, 0.01% acetic acid), mean MIC
  MIC of peptidomimetics: 31.3 µg/mL
A. baumannii ATCC 19 606; ATCC 19
  MIC of peptidomimetics: 29.0 µM
E. coli 0015; 0015
  MIC of peptidomimetics: 58.1 µM
E. coli 0015; E. coli 0015, MHB (melimine/Mel4 with 0.2% BSA, 0.01% acetic acid), mean MIC
  MIC of peptidomimetics: 62.5 µg/mL
En. cloacae 003
  MIC of peptidomimetics: 29.0 µM
En. cloacae 003; En. cloacae 003, MHB (melimine/Mel4 with 0.2% BSA, 0.01% acetic acid), mean MIC
  MIC of peptidomimetics: 31.3 µg/mL
K. pneumoniae JIE2709; JIE2709
  MIC of peptidomimetics: 116.2 µM
K. pneumoniae JIE2709; K. pneumoniae JIE2709, MHB (melimine/Mel4 with 0.2% BSA, 0.01% acetic acid), mean MIC
  MIC of peptidomimetics: 125 µg/mL
E. coli 005; 005
  MIC of peptidomimetics: 116.2 µM
E. coli 005; E. coli 005, MHB (melimine/Mel4 with 0.2% BSA, 0.01% acetic acid), mean MIC
  MIC of peptidomimetics: 125 µg/mL
S. aureus 38; 38
  MIC of peptidomimetics: 7.2 µM
S. aureus 38; S. aureus 38, MHB (melimine/Mel4 with 0.2% BSA, 0.01% acetic acid), mean MIC
  MIC of peptidomimetics: 7.8 µg/mL
S. aureus 04
  MIC of peptidomimetics: 3.9 µg/mL
En. cloacae 001
  MIC of peptidomimetics: 29.0 µM
En. cloacae 001; En. cloacae 001, MHB (melimine/Mel4 with 0.2% BSA, 0.01% acetic acid), mean MIC
  MIC of peptidomimetics: 31.3 µg/mL
S. aureus 105; 105
  MIC of peptidomimetics: 7.2 µM
S. aureus 105; S. aureus 105, MHB (melimine/Mel4 with 0.2% BSA, 0.01% acetic acid), mean MIC
  MIC of peptidomimetics: 7.8 µg/mL
En. cloacae 005
  MIC of peptidomimetics: 15.6 µg/mL
A. baumannii 006; 006
  MIC of peptidomimetics: 7.2 µM
A. baumannii 006; A. baumannii 006, MHB (melimine/Mel4 with 0.2% BSA, 0.01% acetic acid), mean MIC
  MIC of peptidomimetics: 7.8 µg/mL
